Values joined by “and” are separate entries in the source; they are usually repeats but may differ in a detail not shown here. Equal entries are not always repeated.
Biological target: T1, hTRPC6 (Homo sapiens, UniProt Q9Y210)
T1 construct: expressed in transfected cells
T1 sequence (Q9Y210 1-931): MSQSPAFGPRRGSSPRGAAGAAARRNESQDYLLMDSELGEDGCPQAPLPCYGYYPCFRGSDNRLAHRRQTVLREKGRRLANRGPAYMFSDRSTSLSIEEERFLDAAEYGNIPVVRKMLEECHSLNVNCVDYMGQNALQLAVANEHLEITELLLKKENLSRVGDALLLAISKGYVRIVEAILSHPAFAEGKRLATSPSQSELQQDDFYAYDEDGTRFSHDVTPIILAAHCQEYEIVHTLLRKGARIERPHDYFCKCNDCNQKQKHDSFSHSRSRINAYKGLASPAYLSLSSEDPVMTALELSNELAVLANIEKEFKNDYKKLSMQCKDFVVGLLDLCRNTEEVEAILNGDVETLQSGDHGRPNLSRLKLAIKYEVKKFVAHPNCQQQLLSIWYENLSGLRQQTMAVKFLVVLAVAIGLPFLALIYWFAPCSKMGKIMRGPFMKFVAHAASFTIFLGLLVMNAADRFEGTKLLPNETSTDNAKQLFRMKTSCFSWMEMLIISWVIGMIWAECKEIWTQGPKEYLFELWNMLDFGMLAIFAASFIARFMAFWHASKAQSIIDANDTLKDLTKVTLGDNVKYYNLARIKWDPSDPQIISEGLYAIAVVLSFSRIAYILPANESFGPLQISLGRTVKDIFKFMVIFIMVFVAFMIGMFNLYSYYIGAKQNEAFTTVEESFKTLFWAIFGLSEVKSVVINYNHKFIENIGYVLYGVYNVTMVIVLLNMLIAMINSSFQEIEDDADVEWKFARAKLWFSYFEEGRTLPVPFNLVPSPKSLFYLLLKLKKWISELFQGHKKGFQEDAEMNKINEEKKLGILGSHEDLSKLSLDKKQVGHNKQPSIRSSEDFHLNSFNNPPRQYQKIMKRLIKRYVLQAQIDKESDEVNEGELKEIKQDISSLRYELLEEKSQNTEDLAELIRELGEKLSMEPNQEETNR
Assay: OAG-induced Ca2+ entry, fluo-4 fluorometric imaging plate reader, TRPC6 HEK-FITR cells
Format: cell-based
Conditions: for IC50: TRPC6 HEK-FITR cells, fluo-4, area under the curve, 10 min pre-incubation, read-out: IC50, inhibition of OAG-induced Ca2+ entry via TRPC6; for Hill slope n, inhibition of TRPC6-mediated Ca2+ entry: fit to Hill model
Procedure: Cells were grown at 37°C in a humidified atmosphere (5% or 7% CO2) under standard cell culture conditions. Stable human embryonic kidney (HEK) cell lines expressing recombinant mTRPC4ß (GenBank accession number AAC05178); mTRPC5 (GenBank accession number NM_009428) or hTRPC6 (GenBank accession number AF080394) under the control of a tetracycline-inducible promoter were generated using the Flp-In T-Rex (FITR) system (Invitrogen, Karlsruhe, Germany). TRPC4/5/6 HEK-FITR cells were maintained in Dulbecco's modified eagle medium (DMEM, with glutaMAX I, 4.5 g/l glucose and […] sodium pyruvate) supplemented with 10% (v/v) fetal bovine serum (Biochrom, Berlin, Germany), 1 mM glutamine, 1 mM MEM sodium pyruvate, 40 μg/ml hygromycin (50 μg/ml for mTRPC5 HEK-FITR cells), and 15 μg/ml blasticidine HCl. Channel expression was induced by supplementing the growth medium for 18-24 h with 1 μg/ml doxycycline. Cells grown to an almost confluent monolayer on black poly-D-lysine coated 96-well plates (Greiner, Frickenhausen, Germany) were washed with standard extracellular solution (140 mM NaCl, 1 mM MgCl2, 5.4 mM KCl, 2 mM CaCl2, 10 mM HEPES, 10 mM glucose, pH 7.35) and stained (30 min, room temperature) with dye solution (2 μM fluo-4 AM, 0.02% pluronic F127, 0.1% bovine serum albumin in standard extracellular solution). Cells were washed and either incubated with standard extracellular solution only or with different concentrations of test compounds for 10 min. Fluo-4 fluorescence was excited at 488 nm with an argon laser and measured using a fluorometric imaging plate reader (Molecular Devices, Sunnyvale, USA). All fluorometric measurements were performed at room temperature. […] Baseline fluorescence in non-OAG-stimulated cells and OAG-stimulated Ca^2+ influx into control cells not treated with inhibitors were defined as 0% and 100% influx, respectively. For statistical analysis, analysis of variance was performed with Origin 6.0 software (Microcal Software Inc., Northampton, USA). […] Averaged data is expressed as means ± SEM.

Row | Effect on TRPC6-mediated Ca2+ entry (30 µM pre-incubation, OAG-induced) | IC50 | Hill slope n, inhibition of TRPC6-mediated Ca2+ entry | SMILES
1 | significantly reduced | 3 to 5 µM and 5.2 µM | 0.97 | C#C[C@]1(OC(C)=O)CC[C@H]2[C@@H]3CCC4=CC(=NO)CC[C@@H]4[C@H]3CC[C@@]21CC (mixture of isomers) [norgestimate]
2 |  | 18 µM | 1.2 | CC(=O)[C@H]1CC[C@H]2[C@@H]3CCC4=CC(=O)CC[C@]4(C)[C@H]3CC[C@]12C [progesterone]
